In patent US20240050574A1, “IONIZABLE LIPIDS” (eTheRNA immunotherapies NV, priority 2020, published 2024):

Legend:
[1] = LNP size and polydispersity index by Dynamic Light Scattering (Malvern Zetasizer); assay type: physicochemical
[2] = test system: E7-specific CD8 T cells; test: E7-specific CD8 T cell response after intramuscular E7 mRNA LNP vaccination (Example 5); assay type: in vivo, mice; conditions: Example 5, FIG. 13, in vitro stimulation with E7-derived peptide, vs MC-3
[3] = LNP size and polydispersity index by Dynamic Light Scattering (Malvern Zetasizer); assay type: physicochemical; conditions: N/P 10
Protocol: (§1) Lipid based nanoparticles are produced by microfluidic mixing of an mRNA solution in sodium acetate buffer (100 mM, pH4) and lipid solution in a 2:1 volume ratio at a speed of 9 mL/min using the NanoAssemblr Benchtop (Precision Nanosystems). The lipid solution contained a mixture of the ionizable lipid of interest, DSPC, DOPC or DOPE (Avanti), Cholesterol (Sigma) and DMG-PEG2000 (Sunbright GM-020, NOF corporation. The 4 lipids were mixed at 6 different molar ratios. LNPs were dialyzed against TBS (10000 times more TBS volume than LNP volume) using slide-a-lyzer dialysis cassettes (20K MWCO, 3 mL, ThermoFisher). Size, polydispersity and zeta potential were measured with a Zetasizer Nano (Malvern). mRNA encapsulation was measured by standard Ribogreen RNA assay (Invitrogen).
Size and Poly Dispersity Index were assessed by Dynamic Light Scattering (DLS) on a Malvern Zetasizer. MC-3 is the ionizable lipid used in Onpattro and is considered the state-of-the art.
(§2) LNP formulations were prepared using a modified procedure of a method previously described for siRNA LNP synthesis. All formulations were prepared in a sterile manner with a N/P ratio of 10. All lipid components were dissolved in ethanol at molar ratios of 50:10:38.5:1.5 mol % (ionizable lipid/DSPC/Cholesterol/DMG-PEG2000). DSPC, Cholesterol and DMG-PEG2000 were purchased from Avanti Polar Lipids (Alabaster, Alabama, USA), while the Ionizable lipids are synthesized in-house. The final lipid concentration in ethanol was fixed at 10 mg/mL. E7 mRNA was dissolved in 100 mM acetate buffer (Sigma Aldrich, Saint-Louis, Missouri, USA) pH 4. The ethanol and aqueous phase were combined using a microfluidic mixer (NanoAssemblr® BenchTop (Precision Nanosystems, Vancouver, BC) in a 2:1 (aqueous:ethanol) ratio. Formulations were dialysed afterwards against 1× Sterile TBS pH 7.4 (Sigma Aldrich, Saint-Louis, Missouri, USA) using Slide-A-Lyzer® dialysis cassettes with a MWCO of 20.000 Da (Thermo Scientific, Massachusetts, USA) for 18 hours. Afterwards, the purified formulations were concentrated using Amicon ultra centrifugal filters (EMD Millipore, Massachusetts, USA). Finally, the exact concentration and E.E. % was determined through a Ribogreen Assay prior to final dilution with TBS (100 μg/mL E7 mRNA per formulation. All formulations were characterized for size and PDI using Dynamic Light Scattering Zetasizer Nano-ZS (Malvern Pananlytical Ltd., Malvern, UK) and stored afterwards at 4° C. The physico-chemical characteristics of each formulation can be found in Table 5.

[4] = mRNA encapsulation efficiency by Ribogreen RNA assay; assay type: physicochemical; conditions: for E.E. (encapsulation efficiency): N/P 10
Protocol: as §1, with “(Invitrogen). […]” for “(Invitrogen).”
as §2

[5] = Body weight after intratumoral LNP administration (CT26 model); assay type: in vivo, Balb/c mice; conditions: after intratumoral administration of 10 μg mRNA LNP
Protocol: Fluc mRNA expression in tumor and liver was assessed at 6 an 24 hours post injection. By injecting mice peritoneally with D-luciferin (Promega), bioluminescence can be measured through in vivo imaging (IVIS Spectrum System). Bioluminescence is generated through an oxidation reaction which occurs between the enzyme luciferase derived from the firefly mRNA encapsulated in the LNP and its substrate D-luciferin. The Living Image Software (PerkinElmer) was used to specify tumor and liver ‘region of interests (ROIs) after which the average radiance (p/s/cm^2/sr) was calculated within these ROIs. To monitor tolerability of different LNP types used, bodyweight at 6 and 24 hours post injection was compared to baseline bodyweight at day of randomization.
Balb/c mice were subcutaneously inoculated with CT26 tumor cells. When tumors reached a mean volume of 50-100 mm^3, tumors were injected with the respective mRNA LNPs (10 μg mRNA; 20 μl volume; TBS buffer) or with control buffer.

[6] = Body weight after intratumoral LNP administration (B16F10 model); assay type: in vivo, C57/BL6 mice; conditions: B16F10 model (Example 2.5); after intratumoral administration of 10 μg mRNA LNP
[7] = test system: B16F10 tumors; test: Fluc mRNA expression in tumor after intratumoral LNP injection, in vivo bioluminescence; design: species or system C57/BL6 mice; conditions: B16F10 tumors (Example 2.5); intratumoral 10 μg mRNA; 6 hours and 24 hours post injection; vs MC-3 based benchmark LNP
Protocol: (§3) In case of CT26 tumor inoculation we used Balb/c mice. For B16F10 tumor inoculation C57/BL6 mice were used. To prepare for subcutaneous tumor inoculation, mice were anesthetized using 2.5% isoflurane and the injection site was shaved. The injection site is typically on the posterior/lateral aspect of the lower left flank. For inoculation purposes, cells need to be approximately 1 week in culture and between passage 3 and 5 after thawing. Cold tumor cell solution was injected subcutaneously at a dose of 0.5*10e6 cells/50 μl PBS. Tumor growth was measured every 2-3 days using the Caliper device. The following formula was used to calculate tumor size: (tumor width*tumor width*tumor length)/2. […] After injections, mice were always monitored for 5-10 minutes until fully awake without showing any sings of pain distress or complications.
(§4) Fluc mRNA expression in tumor and liver was assessed at 6 an 24 hours post injection. By injecting mice peritoneally with D-luciferin (Promega), bioluminescence can be measured through in vivo imaging (IVIS Spectrum System). […] The Living Image Software (PerkinElmer) was used to specify tumor and liver ‘region of interests (ROIs) after which the average radiance (p/s/cm^2/sr) was calculated within these ROIs. […]

[8] = test system: liver; test: Fluc mRNA off-target expression in liver after intratumoral LNP injection of CT26 tumors; assay type: in vivo, Balb/c mice; conditions: intratumoral 10 μg mRNA, 6 hours and 24 hours post injection, vs MC-3 based benchmark LNP
Protocol: as §3, §4

[9] = test system: liver; test: Fluc mRNA off-target expression in liver after intratumoral LNP injection of B16F10 tumors; assay type: in vivo, C57/BL6 mice; conditions: B16F10 tumors (Example 2.5); intratumoral 10 μg mRNA; 6 hours and 24 hours post injection; vs MC-3 based benchmark LNP
Protocol: as §3, §4

[10] = Table 6 (Example 4, HA mRNA), ionizable lipid/DSPC/Chol/DMG-PEG2000 50/10/38.5/1.5 mol %, N/P 10
[11] = Table 7, Ratio 2: 56.71/14.43/27.58/1.28 mol % ionizable lipid/DSPC/Chol/DMG-PEG2000, N/P 10
[12] = Table 7, Ratio 1: 50/10/38.5/1.5 mol % ionizable lipid/DSPC (SS-EC: DOPE)/Chol/DMG-PEG2000
[13] = Table 6 (Example 4, HA mRNA), ionizable lipid/DSPC/Chol/DMG-PEG2000 50/10/38.5/1.5 mol %
[14] = Table 7, Ratio 2: 56.71/14.43/27.58/1.28 mol % ionizable lipid/DSPC/Chol/DMG-PEG2000
[15] = Table 3, LNP ionizable lipid/phospholipid/cholesterol/DMG-PEG2000 about 50/10/38.5/1.5, DOPE, except MC-3 with DSPC, eGFP mRNA
[16] = Table 5, ionizable lipid/DSPC/Chol/DMG-PEG2000 50/10/38.5/1.5 mol %, E7 mRNA

| Structure (SMILES) | PDI [1, 10] | size [1, 10] | PDI [1, 11] | size [1, 11] | PDI [3, 12] | size [3, 12] | E.E. (encapsulation efficiency) [4, 13] | E.E. (encapsulation efficiency) [4, 12] | E.E. (encapsulation efficiency) [4, 14] | other results |
| --- | --- | --- | --- | --- | --- | --- | --- | --- | --- | --- |
| CCCCCCCCC(CCCCCC)C(=O)OCCN(CCOC(=O)C(CCCCCC)CCCCCCCC)C(=O)OCCSSCCOC(=O)NCCN1CCCCCC1 (stereo not drawn) [S-Ac7-DHDa] | 0.083 | 105.1 nm | 0.081 | 88 nm | 0.095 | 90 nm | 97% | 97% | 95% | T cell responses (IFNg+, IFNg+ TNFa+, IFNg+ Granzyme b+, IFNg+ CD107+ CD8 T cells in spleen) [2]: superior T cell responses compared to MC-3 |
| CCCCCCCC/C=C\CCCCCCCC(=O)OCC(CNC(=O)OCCSSCCOC(=O)NCCN1CCCCCC1)OC(=O)CCCCCCC/C=C\CCCCCCCC (stereo not drawn) [S-Ac7-DOg] | 0.077 | 93.62 nm | 0.106 | 97 nm | 0.094 | 109 nm | 98% | 97% | 96% | body weight [5]: No weight loss; PDI [1, 15]: 0.21; size ([1]; Table 3, LNP ionizable lipid/phospholipid/cholesterol/DMG-PEG2000 about 50/10/38.5/1.5, DOPE, except MC-3 with DSPC, eGFP mRNA, in nm (unit assumed)): 87.46; body weight [6]: No weight loss; PDI [3, 16]: 0.062; size [3, 16]: 97.51 nm; Fluc expression levels in the tumor (in vivo bioluminescence) [7]: increased Fluc expression levels in the tumor compared to the MC-3 based benchmark LNP; off-target Fluc expression in the liver [8]: strongly reduced off-target expression in the liver; off-target Fluc expression in the liver [9]: strongly reduced off-target expression in the liver; % encap [4, 15]: 90%; E.E. (encapsulation efficiency) [4, 16]: 96% |
